Experimental data: paper PMC12386606, “Evaluation of the In Vitro Blood–Brain Barrier Transport of Ferula persica L. Bioactive Compounds” (International Journal of Molecular Sciences, 2025)
Like-named read-outs stand apart in the source and are kept apart here.

Assays:
[1] = oil/water partition coefficient, ref PubChem, cited from earlier work
HBMEC cells = test: Blood–brain barrier transport study in HBMEC Transwell monolayer; details: for AerExt Te (%) ± SD 2 h / AerExt Te (%) ± SD 4 h / AerExt Te (%) ± SD 24 h: AerExt 40 µg mL^−1 apical; for AerExt Te (%) ± SD 2 h / AerExt Te (%) ± SD 4 h / AerExt Te (%) ± SD 24 h / RootExt Te (%) ± SD 2 h / RootExt Te (%) ± SD 4 h / RootExt Te (%) ± SD 24 h: n.q. = not quantified in the basolateral compartment; for RootExt Te (%) ± SD 2 h / RootExt Te (%) ± SD 4 h / RootExt Te (%) ± SD 24 h: RootExt 20 µg mL^−1 apical
Description: After the toxicity evaluation, the HBMEC cell line was also used as a simplified in vitro model of the BBB endothelium. Cells were seeded at a density of 1.6 × 10^5 cells/cm^2 in 12-well Transwell® plates (Corning Costar Corp., Corning, USA) with a pore diameter of 0.4 μm, pre-coated with type I rat tail collagen (100 μg mL^−1) [55]. The culture medium was renewed every 2 days until a monolayer cell structure was formed (see Supplementary Figure S2), and transport experiments were initiated after 10 days. In transport experiments, the medium in the apical (upper) compartment of the Transwell system was removed, and 0.5 mL of AerExt or RootExt at a concentration of 40 μg mL^−1 and 20 μg mL^−1, respectively, was added to these compartments (applied in duplicate). Also, a medium containing 0.4% (v/v) ethanol was used as control group. The basolateral (lower) compartments were filled with 1.5 mL of fresh culture medium. The cells were incubated under these conditions for 2, 4, and 24 h.
At the end of the incubation periods, media samples were collected from both chambers and lyophilized using a freeze-drying system from Martin Christ (Osterode am Harz, Germany). The samples were stored at −80 °C until analysis. The collected samples were subjected to chemical analyses to evaluate the ability of bioactive compounds contained in the extracts to pass through the cell monolayer.
The transport efficiency (Te) of bioactive substances was calculated based on Equation (3), described by [56]:Te (%) = CLower/CUpper × 100(3)
This calculation was performed to understand whether the compound crosses the cell layer and how efficiently it is transported.
For this purpose, 0.2 mL of cold water (H2O) was added to the samples, and the samples were vortexed for 10 s. Then, 0.8 mL of cold methanol was added and vortexed again for 10 s. Then, the mixture was centrifuged at 14,000 rpm for 5 min, and the supernatant was carefully transferred to a 1.5 mL Eppendorf tube and dried in a SpeedVac device at 40 °C and 13 bar pressure. Finally, the dried samples were resuspended in 25 μL of pure ethanol for their subsequent analysis.
For HPLC-Q-TOF MS/MS analysis, aliquots of 2 μL were injected into an HPLC model 1290 coupled to a Q-TOF series 6540 (Agilent Technologies, Waldbronn, Germany). For GC-Q-TOF MS analysis, aliquots of 1 μL were injected with a split ratio of 1:10 into a GC model 7890B coupled to a Q-TOF series 7200 (Agilent Technologies, Waldbronn, Germany). The HPLC-MS and GC-MS chromatograms were processed using the Agilent Mass Hunter Qualitative software (version B.10.0) to verify the retention time and exact mass of the compounds previously reported by us [25] and to extract their peak area to calculate the BBB permeability.

[2] = Parallel artificial membrane permeability assay for the blood–brain barrier (PAMPA-BBB); details: for RootExt log Pe: compound within RootExt donor solution; for RootExt log Pe / AerExt log Pe: 37 °C, 4 h, PBS pH 7.4, n.q. = not quantified in the acceptor plate; for AerExt log Pe: compound within AerExt donor solution; for AerExt Cross BBB Potential: compound within AerExt

Row | Molecule | log p ([1]; Table 1) | AerExt Te (%) ± SD 2 h (HBMEC cells) | AerExt Te (%) ± SD 4 h (HBMEC cells) | AerExt Te (%) ± SD 24 h (HBMEC cells) | RootExt log Pe [2] | AerExt log Pe [2] | further results
1 | O=c1cc(-c2ccc(O)cc2)oc2cc(O)cc(O)c12 [Apigenin] | 1.7 | 4.2 ± 0.9% | 5.1 ± 0.3% | 309.7 ± 93.0% | n.q. |  | Papp at 4 h ([2]; PAMPA, pH 7.4): 977 nm/s
2 | O=C(O)c1cccc(O)c1O [2,3-dihydroxybenzoic acid] | 1.2 | 17.5 ± 3.5% | 9.6 ± 0.6% | 14.0 ± 3.9% |  | n.q. | log p ([1]; Table 2): 1.5; RootExt Te (%) ± SD 2 h (HBMEC cells): 21.4 ± 5.3%; RootExt Te (%) ± SD 4 h (HBMEC cells): 23.9 ± 4.4%; RootExt Te (%) ± SD 24 h (HBMEC cells): 214.1 ± 45.4%
3 | COc1ccc(C=O)c(O)c1 [4-methoxysalicylaldehyde] | 1.5 | n.q. | n.q. | n.q. |  | n.q. | crossing of the HBMEC-BBB (HBMEC cells; AerExt 40 µg mL^−1 / RootExt 20 µg mL^−1, 2, 4, 24 h): could not cross the HBMEC-BBB; RootExt Te (%) ± SD 2 h (HBMEC cells): n.q.
4 | COc1cc([C@@H]2OC[C@@H]3[C@H]2CO[C@H]3c2cc(OC)c(O[C@@H]3O[C@H](CO)[C@@H](O)[C@H](O)[C@H]3O)c(OC)c2)cc(OC)c1O[C@@H]1O[C@H](CO)[C@@H](O)[C@H](O)[C@H]1O [Syringaresinol diglucoside] | −1.4 | n.q. | n.q. | n.q. | n.q. | n.q. | 
5 | CC(C)[C@@H]1CC[C@@]2(C)[C@H](O)CC[C@](C)(O)[C@H]2[C@@H]1O[C@@H]1O[C@H](CO)[C@@H](O)[C@H](O)[C@H]1O [Ophiopogonoside A] | 0.4 |  |  |  | n.q. | n.q. | RootExt Te (%) ± SD 2 h (HBMEC cells): n.q.; RootExt Te (%) ± SD 4 h (HBMEC cells): n.q.; RootExt Te (%) ± SD 24 h (HBMEC cells): 66.0 ± 3.2%
6 | O=C(O)/C=C/c1ccc(O)cc1 [4-coumaric acid] | 1.5 | n.q. | n.q. | n.q. | n.q. | n.q. | RootExt Te (%) ± SD 2 h (HBMEC cells): n.q.; RootExt Te (%) ± SD 4 h (HBMEC cells): n.q.; RootExt Te (%) ± SD 24 h (HBMEC cells): n.q.
7 | CC(=O)OC[C@H]1O[C@@H](Oc2cc(O)c3c(=O)c(-c4ccc(O)cc4)coc3c2)[C@H](O)[C@@H](O)[C@@H]1O [6″-O-acetylgenistin] | 0.9 |  |  |  |  | n.q. | 
8 | COc1cc([C@H]2OC[C@H]3[C@@H]2CO[C@@H]3c2cc(OC)c(O[C@@H]3O[C@H](CO)[C@@H](O)[C@H](O)[C@H]3O)c(OC)c2)cc(OC)c1O [Syringaresinol glucoside] | −1.4 |  |  |  | n.q. | n.q. | 
9 | C=CCc1cc(OC)c2c(c1)OCO2 [Myristicin] | 2.9 |  |  |  | n.q. |  | 
10 | O=c1cc(-c2ccc(O)c(O)c2)oc2cc(O[C@@H]3O[C@H](CO)[C@@H](O)[C@H](O)[C@H]3O)cc(O)c12 [Luteolin 7-glucoside] | 0.5 |  |  |  | n.q. |  | AerExt Cross BBB Potential ([2]; PAMPA-BBB): + (log Pe < −6.5)
11 | C=CC(C)(O)CC/C=C(\C)CCC=C(C)C (centres unmarked) [(E)-nerolidol] | 4.6 |  |  |  | n.q. | n.q. | 
12 | O=Cc1cccc(C(=O)O)c1O [3-formylsalicylic acid] | 1.0 |  |  |  | −5.50 |  | 
13 | C/C1=C\CC/C(C)=C/CC(C)(C)/C=C/C1 [α-humulene] | 4.5 |  |  |  | n.q. | n.q. | 
14 | O=C(O)[C@]1(O)C[C@@H](O)[C@@H](O)[C@H](O)C1 [Quinic acid] | −2.4 |  |  |  |  |  | AerExt Cross BBB Potential ([2]; PAMPA-BBB): + (log Pe < −6.5)
15 | CC1=C2C[C@H](C(C)(C)O)CC[C@]2(C)CCC1 [epi-γ-eudesmol] | 2.9 |  |  |  |  |  | AerExt Cross BBB Potential ([2]; PAMPA-BBB): + (log Pe < −6.5); RootExt Cross BBB Potential ([2]; compound within RootExt, PAMPA-BBB): + (log Pe < −6.5)
16 | Farnesyl acetate | 5.3 |  |  |  |  | −5.25 | 
